From article PMC3147111 (European journal of immunology, 2010) come the findings set out here.

In the assay the target is DRB1*1501 (Homo sapiens, UniProt P01903+P01911). The assay can be described thus: biochemical. Format: binding.

`CC(C)C[C@H](NC(=O)[C@H](Cc1ccc(O)cc1)NC(=O)[C@H](C)NC(=O)[C@H](CCCNC(=N)N)NC(=O)[C@H](CC(C)C)NC(=O)[C@H](CCC(N)=O)NC(=O)[C@H](CCC(=O)O)NC(=O)[C@H](C)NC(=O)[C@@H](N)CCC(=O)O)C(=O)N[C@@H](CC(=O)O)C(=O)NCC(=O)N[C@H](C(=O)NCC(=O)N[C@H](C(=O)N[C@@H](CCC(=O)O)C(=O)O)C(C)C)[C@@H](C)O` [A3 152–166] gave an IC50 of 0.048 µM.
